Laboratory results: patent US20240197813A1, “TREATMENT OF DYSPHAGIA” (OT4B, priority 2021, published 2024)
Entries after “also recorded” stand apart in the source; their conditions may differ.

Key:
[1] = test system: dysphagia in patient with neurodevelopmental disorder and hypothalamic disorder; assay: Case report PATIENT 2: daily intranasal oxytocin, VFSS and clinical symptoms; format: in vivo, human; details: 16 IU daily intranasal, 3 weeks
From the text: PATIENT 2 was […]. They suffered from neurodevelopmental disorder and presented hypothalamic disorder.
The VFSS was abnormal including slow pharyngeal transit with pharyngeal residues and slow oesophageal transit with oesophageal reflux and stasis.
They received daily 16 IU of intranasal OXT during 3 weeks.

[2] = test system: dysphagia in patient with Prader-Willi syndrome; assay: Case report PATIENT 1: daily intranasal oxytocin, videofluoroscopic swallow study (VFSS); format: in vivo, human; details: PWS patient, 8 IU daily intranasal, 3 weeks
From the text: PATIENT 1 was […] with Prader-Willi syndrome due to maternal uniparental disomy diagnosed soon after at birth.
The videofluoroscopic swallow study (VFSS) was abnormal with prolonged oesophageal transit and decreased peristalsis and abnormal closure of upper oesophageal sphincter.
They received 8IU of daily intranasal OXT during 3 weeks.

[3] = test system: infants with PWS under 6 months old; details: cited from earlier work

CC[C@H](C)[C@@H]1NC(=O)[C@H](Cc2ccc(O)cc2)NC(=O)[C@@H](N)CSSC[C@@H](C(=O)N2CCC[C@H]2C(=O)N[C@@H](CC(C)C)C(=O)NCC(N)=O)NC(=O)[C@H](CC(N)=O)NC(=O)[C@H](CCC(N)=O)NC1=O [oxytocin]
clinical symptoms of dysphagia [1]: improved clinical symptoms of dysphagia
oesophageal transit [1]: normalize
oropharyngeal initiation and synchronisation [1]: normalize oropharyngeal initiation and synchronization
stasis and reflux on VFSS after treatment [1]: neither stasis nor reflux
tolerability of treatment [1]: well tolerated
oesophageal transit ([1]; listed as OXT): normalization of oesophageal transit
oropharyngeal initiation and synchronisation ([1]; listed as OXT): normalization of oropharyngeal initiation and synchronisation
VFSS overall [2]: improved VFSS
oesophageal transit (VFSS) [2]: improved oesophageal transit; also recorded: improve esophageal transit
peristalsis (VFSS) [2]: complete normalization of peristalsis
tolerability of treatment [2]: well tolerated
upper oesophageal sphincter closure (VFSS) [2]: normal upper oesophageal sphincter closure; also recorded: complete normalization
tolerability of intranasal administration [3]: well-tolerated
feeding and social skills ([3]; intranasal): significantly improves
